Tests used:
MCF7 = assay: Antiproliferative activity assessed in the MCF-7 human mamma carcinoma using the BrdU; type: functional, cell-based
LXFL 529 = assay: Antiproliferative activity assessed in the LXFL529 human lung carcinoma using the BrdU; type: functional, cell-based
[1] = Antiproliferative activity assessed in the RENCA murine renal cell carcinoma using the BrdU; type: functional, cell-based, Mus musculus
Albumin [2] = biological target: T1, Albumin (Homo sapiens, UniProt P02768); assay: Second order rate constant after incubation with human serum albumin (HSA) at pH 7.4 in the absence of myristic acid
Albumin [3] = biological target: T1, Albumin; assay: Second order rate constant after incubation with human serum albumin (HSA) at pH 7.4 in the presence of 5 equiv of myristic acid

T1 sequence (P02768 whole entry): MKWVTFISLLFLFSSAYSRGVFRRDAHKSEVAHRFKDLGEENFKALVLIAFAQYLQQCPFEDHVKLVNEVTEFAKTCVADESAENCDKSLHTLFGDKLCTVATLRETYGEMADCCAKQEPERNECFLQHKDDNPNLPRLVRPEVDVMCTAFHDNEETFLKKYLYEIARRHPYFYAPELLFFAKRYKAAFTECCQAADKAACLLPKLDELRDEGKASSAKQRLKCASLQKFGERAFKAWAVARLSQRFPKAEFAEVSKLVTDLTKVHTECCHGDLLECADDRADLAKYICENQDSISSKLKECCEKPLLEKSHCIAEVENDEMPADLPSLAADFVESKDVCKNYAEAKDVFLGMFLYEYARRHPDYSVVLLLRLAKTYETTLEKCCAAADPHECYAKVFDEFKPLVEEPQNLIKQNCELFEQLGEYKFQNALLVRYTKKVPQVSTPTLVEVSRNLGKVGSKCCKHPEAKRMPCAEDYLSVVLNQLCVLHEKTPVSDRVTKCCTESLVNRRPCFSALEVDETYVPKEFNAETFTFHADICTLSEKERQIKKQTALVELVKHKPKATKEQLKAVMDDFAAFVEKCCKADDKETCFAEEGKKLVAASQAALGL

IC50 (MCF7; Homo sapiens, MCF7)	k2 (Albumin [2])	k2 (Albumin [3])	Compound	IC50 (LXFL 529; Homo sapiens, LXFL 529)	further results
–	25.17 M⁻¹ s⁻¹	19 M⁻¹ s⁻¹	COc1cccc2c1C(=O)c1c(O)c3c(c(O)c1C2=O)C[C@@](O)(/C(CO)=N/NC(=O)CCCN1C(=O)C=CC1=O)C[C@]3(C)COC1C[C@H](N)[C@](C)(O)[C@H](C)O1.Cl (some centres undefined)	–	–
–	10 M⁻¹ s⁻¹	16 M⁻¹ s⁻¹	COc1cccc2c1C(=O)c1c(O)c3c(c(O)c1C2=O)C[C@@](O)(/C(CO)=N/NC(=O)CCCCCCCN1C(=O)C=CC1=O)C[C@]3(C)COC1C[C@H](N)[C@](C)(O)[C@H](C)O1.Cl (some centres undefined)	–	–
1000 nM	–	–	COc1cccc2c1C(=O)c1c(O)c3c(c(O)c1C2=O)C[C@@](O)(/C(CO)=N/NC(=O)CCCCCN1C(=O)C=CC1=O)C[C@]3(C)COC1C[C@H](N)[C@](C)(O)[C@H](C)O1 (stereo in doubt)	400 nM	IC50 ([1]; Mus musculus): 900 nM
–	17.33 M⁻¹ s⁻¹	37.5 M⁻¹ s⁻¹	COc1cccc2c1C(=O)c1c(O)c3c(c(O)c1C2=O)C[C@@](O)(/C(CO)=N/NC(=O)CCCCCN1C(=O)C=CC1=O)C[C@]3(C)COC1C[C@H](N)[C@](C)(O)[C@H](C)O1.Cl (stereo in doubt; 3)	–	IC50 (MCF7; mcf7): 1100 nM; IC50 (LXFL 529; lxfl 529): 500 nM; IC50 [1]: 1000 nM

Second part, the compound before the results:

Compound	IC50 (MCF7; Homo sapiens, MCF7)	k2 (Albumin [2])	k2 (Albumin [3])	IC50 (LXFL 529; Homo sapiens, LXFL 529)	further results
COc1cccc2c1C(=O)c1c(O)c3c(c(O)c1C2=O)C[C@@](O)(/C(CO)=N/NC(=O)CCCCCN1C(=O)CCC1=O)C[C@]3(C)COC1C[C@H](N)[C@](C)(O)[C@H](C)O1 (some centres undefined)	1100 nM	–	–	500 nM	IC50 ([1]; Mus musculus): 700 nM
COc1cccc2c1C(=O)c1c(O)c3c(c(O)c1C2=O)C[C@@](O)(/C(CO)=N/NC(=O)CCN1C(=O)C=CC1=O)C[C@]3(C)COC1C[C@H](N)[C@](C)(O)[C@H](C)O1.Cl (some centres undefined)	–	23.83 M⁻¹ s⁻¹	17.83 M⁻¹ s⁻¹	–	–
COc1cccc2c1C(=O)c1c(O)c3c(c(O)c1C2=O)C[C@@](O)(C(=O)CO)C[C@@H]3O[C@H]1C[C@H](N)[C@H](O)[C@H](C)O1 [DOXORUBICIN]	40 nM	–	–	40 nM	–
